{"source": "patent US20070225212A1", "about": "“Use of a peptide” (priority 1992, published 2007)", "key": {"[1]": {"tested_on": "patients with NIDDM and secondary failure to sulfonylurea treatment", "assay": "Example 2: basal state and standard lunch study in patients with secondary failure to sulfonylurea treatment", "assay_type": "in vivo, human", "conditions": "for Insulinogenic index (integrated insulin/integrated glucose response): after ingestion of the meal; for Insulinogenic index (integrated insulin/integrated glucose response) / Blood glucose: GLP-1(7-36)amide 0.75 pmol/kg/min, glibenclamide 1 mg i.v., 8 NIDDM patients with sulfonylurea failure"}, "healthy volunteers": {"tested_on": "healthy volunteers", "conditions": "peptide infused into healthy volunteers; cited from earlier work"}, "[2]": {"tested_on": "insulin treated obese NIDDM patients", "assay": "Example 1: standard test meal study, meal-related C-peptide response, glucagon response and IMIR", "assay_type": "in vivo, human", "conditions": "GLP-1(7-36)amide 0.75 pmol/kg/min infusion for 210 min, glibenclamide 1 mg i.v., 6 insulin treated obese NIDDM patients"}, "[3]": {"tested_on": "isolated precultured rat pancreatic islets", "conditions": "in the presence of glucose, dose-dependent; cited from earlier work"}, "[4]": {"tested_on": "diabetic as well as nondiabetic subjects", "conditions": "cited from earlier work"}, "[5]": {"conditions": "basal state, 45 minutes after start of administration"}}, "note": "Ends that are not written are not given here."}
{"molecule": "GLP-1(7-36)amide: Peptide of formula I, His-Ala-Glu-Gly-Thr-...-Lys-Gly-Arg-X with X = NH2; fragment of glucagon-like peptide-1", "values": [{"measurement": "Insulinogenic index (integrated insulin/integrated glucose response)", "setting": "[1]", "result": "21.0 ± 7.2,"}, {"measurement": "Blood glucose", "setting": "[1]; [5]", "result": "5.1 ± 0.4", "unit": "mmol/L"}, {"measurement": "plasma insulin", "setting": "healthy volunteers", "result": "significant rise in plasma insulin"}]}
{"molecule": "COc1ccc(Cl)cc1C(=O)NCCc1ccc(S(=O)(=O)NC(=O)NC2CCCCC2)cc1", "note": "[glibenclamide]", "values": [{"measurement": "Glucagon response", "setting": "[2]", "result": "no significant effect"}, {"measurement": "Insulinogenic index (integrated insulin/integrated glucose response)", "setting": "[1]", "result": "10.6 ± 2.8,"}, {"measurement": "effect on blood glucose and C-peptide levels (in words)", "setting": "[1]; [5]", "result": "no significant effect on its own"}, {"measurement": "Blood glucose", "setting": "[1]; [5]", "result": "6.0 ± 0.3", "unit": "mmol/L"}]}
{"molecule": "GLP-1(1-36)amide: amide of a fragment of GLP-1 comprising amino acid residues 1 to 36 (HDEFERHAEGTFTSDVSSYLEGQAAKEFIAWLVKGR-NH2; UniProt P01275 92-127, looked up, fragment)", "values": [{"measurement": "insulin release", "setting": "[3]", "result": "stimulates insulin release"}]}
{"molecule": "GLP-1(7-37): Peptide of formula I with X = Gly-OH; residues 7 to 37 of GLP-1 (HAEGTFTSDVSSYLEGQAAKEFIAWLVKGRG-OH; UniProt P01275 98-128, looked up, fragment)", "values": [{"measurement": "insulinotropic action", "setting": "[4]", "result": "has been demonstrated"}]}
